{
  "source": "patent US20120232290A1",
  "about": "“REACTIVITY OF HYDROXYMETHYLGLUTARYL COENZYME A (HMG-COA) REDUCTASE INHIBITORS CONTAINING CONJUGATED DIENES WITH PHENOLIC ANTIOXIDANTS IN THE SOLID-STATE” (priority 2007, published 2012)",
  "key": {"[1]": {"test": "Stability of isolated simvastatin hydroperoxide degradates on storage", "type": "physicochemical", "conditions": "stored under freezer conditions"}, "[2]": {"conditions": "aqueous solution, radical initiator; cited from earlier work"}, "[3]": {"type": "physicochemical", "conditions": "for hydroxy and hydroperoxide products formed: reactions with antioxidants, determined by LC/MS; for decrease in concentration of statin / change in concentration of statin: solid-state, 50° C., 9 days", "method": "Solvents used varied due to the solubility of the statin. […] The beaker was placed in a dark oven maintained at 50° C. overnight. The beaker was removed from the oven, allowed to cool, then 20 mL of solvent were added and the beaker swirled to redissolve the solid. The beaker was returned to the oven and heated an additional 24 h at 50° C. This dissolution and heating process was repeated daily for the duration of the specific experiment. […] Reversed-phase HPLC analyses were performed using an Agilent 1100 HPLC with an Agilent diode array detector acquiring data in the range of 205-400 nm. This LC/MS-compatible method utilized a Discovery RP Amide C16 250 mm×4.6 mm, 5 μm column (Supelco Inc, Bellefonte Pa.). Mobile phase A was aqueous 0.1% (v/v) formic acid and mobile phase B was acetonitrile containing 0.1% (v/v) formic acid. Mobile phase flow rate was 1 mL/min and the column was maintained at 30° C. The elution sequence was isocratic 60% A:40% B for 0.5 min; a gradient of 60% A:40% B to 50% A:50% B over 1.5 min then hold for 28 min; 50% A:50% B to 20% A:80% B over 1.0 min then hold for 3 min; 20% A:80% B to 100% B over 1.0 min then hold for 4 min. LC/MS analyses were performed using a Waters Acquity UPLC with PDA and a Micro Quattro MS with infusion pump with the LC method described above."}},
  "note": "Where two headings read alike, the source gives them in different places.",
  "data": [
    {"molecule": "CCC(C)(C)C(=O)OC1C[C@@](C)(OO)C=C2C=CC(C)C(CCC3CC(O)CC(=O)O3)C21", "note": "(stereo partly drawn) [3(R)-hydroperoxysimvastatin]", "values": [
      {"measurement": "decomposition of isolate on storage", "setting": "[1]", "result": "slowly decomposed to numerous products over a few days"}
    ]},
    {"molecule": "CCC(C)(C)C(=O)OC1C[C@](C)(OO)C=C2C=CC(C)C(CCC3CC(O)CC(=O)O3)C21", "note": "(stereo partly drawn) [3(S)-hydroperoxysimvastatin]", "values": [
      {"measurement": "decomposition of isolate on storage", "setting": "[1]", "result": "slowly decomposed to numerous products over a few days"}
    ]},
    {"molecule": "CC[C@H](C)C(=O)O[C@H]1C[C@@H](C)C=C2C=C[C@H](C)[C@H](CC[C@@H]3C[C@@H](O)CC(=O)O3)[C@H]21", "note": "[lovastatin]", "values": [
      {"measurement": "rates of oxidation (lovastatin versus simvastatin)", "setting": "[2]", "result": "nearly identical rates of oxidation"},
      {"measurement": "degradation of statin", "setting": "[3]", "result": "Minimal degradation"},
      {"measurement": "hydroxy and hydroperoxide products formed", "setting": "[3]", "result": "minimal quantities of hydroxy and hydroperoxide products"},
      {"measurement": "decrease in concentration of statin", "setting": "[3]; incubated alone", "result": "about 12%"},
      {"measurement": "change in concentration of statin", "setting": "[3]; with BHA", "result": "remained essentially unchanged"},
      {"measurement": "decrease in concentration of statin", "setting": "[3]; with propyl gallate", "result": "about 12%"},
      {"measurement": "change in concentration of statin", "setting": "[3]; with α-tocopherol", "result": "remained essentially unchanged"}
    ]},
    {"molecule": "CC[C@H](C)C(=O)O[C@H]1CCC=C2C=C[C@H](C)[C@H](CC[C@@H]3C[C@@H](O)CC(=O)O3)[C@H]21", "note": "[mevastatin]", "values": [
      {"measurement": "degradation of statin", "setting": "[3]", "result": "Minimal degradation"},
      {"measurement": "hydroxy and hydroperoxide products formed", "setting": "[3]", "result": "minimal quantities of hydroxy and hydroperoxide products"},
      {"measurement": "change in concentration of statin", "setting": "[3]; incubated alone", "result": "no decrease"},
      {"measurement": "change in concentration of statin", "setting": "[3]; with BHA", "result": "no decrease"},
      {"measurement": "change in concentration of statin", "setting": "[3]; with propyl gallate", "result": "no decrease"},
      {"measurement": "change in concentration of statin", "setting": "[3]; with α-tocopherol", "result": "no decrease"}
    ]},
    {"molecule": "CC[C@H](C)C(=O)O[C@H]1C[C@H](O)C=C2C=C[C@H](C)[C@H](CC[C@@H](O)C[C@@H](O)CC(=O)O)[C@H]21", "note": "[pravastatin]", "values": [
      {"measurement": "degradation of statin", "setting": "[3]", "result": "Minimal degradation"}
    ]}
  ]
}
